This is an account of results in patent publication US4025649A, “Acetic acid derivatives having pharmacological activity and compositions containing the same” (priority 1975, dated 1977).

A short description of data set [1]: Solubility of the isolated acid. In kind it is physicochemical. To be noted: free acid. From the text:
In this manner, 9.6 g of 3-n-propyl-hexanoic acid were obtained in the form of a colourless, slightly viscous liquid, insoluble in water and soluble in the organic solvents.

In data set [2] the test system is anoxic seizure induced by gallamine triiodoethylate. Kind of data set: Antianoxic activity: anoxic seizure induced by gallamine triiodoethylate. To be noted: mice; for antianoxic activity compared with sodium di-n-propylacetate: at the doses studied in Table II. In kind it is in vivo, mouse. The protocol: The injection of a sufficient dose of a synthetic curariform substance such as gallamine triiodoethylate provokes in the mouse paralysis of the diaphragm. The animal then dies through asphyxia.
An intraperitoneal dose of the compound to be studied was administered to batches of 20 mice five minutes before the administration of 16 mg/kg of gallamine triiodoethylate by intraperitoneal route. The dose of the compound to be tested was calculated so that each batch received a higher dose than the preceding batch.
The period of time of survival was registered by controlling cardiac arrest by means of an electrocardiogram.
Under these conditions, an antianoxic effect produces an increase in the period of survival of the animal.

Data set [3] has as its system γ-aminobutyric α-ketoglutaric transaminase (GABA T). Description: Inhibition of GABA T in vitro (coupled spectrophotometric test with GABASE). The data set is classed as biochemical, Pseudomonas fluorescens. To be noted: comparison of Ki with sodium di-n-propylacetate (0.8 m mol/ml).
Protocol: This test was undertaken "in vitro" in the absorption cell of a double-beam U.V. spectrophotometer.
The activity of GABA T was measured by following the reduction rate (v) of NADP^+ which corresponds to the evolution of the optical density at 340 mμ on the spectrophotometer.
Determination of the activity rate of GABA T by the principle hereabove described can be effected with either limiting concentrations or a saturating concentration of one of the substrates, in the present case GABA, in each instance, in the presence of a saturating concentration of the second substrate namely α-ketoglutarate.
This effectiveness is represented by the constant Ki or constant of inhibition which determines the affinity of the enzyme (GABA T) for the inhibitor.
This constant is expressed in units of concentration, in the present case, in m mol per ml and can be determined by plotting all the curves corresponding to 1/v = f (I) for a saturating concentration of GABA and for different limiting concentrations of GABA.
The following experimental procedure was used:
In the absorption cell (optical passage: 1 cm, volume: about 1 ml) the following solutions were introduced.
0.5 ml of a 1.5 molar solution of sodium sulphate
0.05 ml of a molar buffer solution of pH = 7.9
0.05 ml of a 0.1 molar solution of mercapto-ethanol
0.05 ml of a 20 mg/ml solution of NADP^+
0.125 ml of a solution of GABA
0.03 ml of a 40 mg/ml solution of GABASE (namely a bacterial enzyme isolated from Pseudomonas fluorescens containing a mixture of γ-aminobutyric α-ketoglutaric transaminase and succinosemialdehyde dehydrogenase).
0.125 ml of a solution of the compound to be studied.
If the compound of the invention was in the form of a water-insoluble acid, its sodium salt was used after adjustment to a pH of about 7.9 by adding a titrated solution of sodium hydroxide.
Different measurements of optical density were effected by varying the concentration of GABA and the concentration of the compound under study. Control assays were also effected by replacing the solution of the compound to be studied by 0.125 ml of water.
The content of the absorption cell was allowed to incubate for 10 minutes at 30° C. and then the enzymatic reaction was started by adding 0.1 ml of a 0.02 molar solution of α-ketoglutarate in the absorption cell. The final volume was 1.03 ml. The reaction was then followed by spectrophotometric recording of the reduction rate of the NADP^+ at 340 mμ and at 30° C. The optical density was automatically registered every 30 seconds.
In data set [4] the test system is pentylenetetrazol-induced seizure. Description: Anticonvulsant activity: pentylenetetrazol-induced seizure. In kind it is in vivo. To be noted: for % of protection: i.p. 15 min before 125 mg/kg pentylenetetrazol i.p., deaths noted at 3 hours, dose mg/kg: A 160, B 175, C 185, F 185, G 175; for anticonvulsant activity compared with sodium di-n-propylacetate / duration of anticonvulsant action compared with sodium di-n-propylacetate: pentylenetetrazol test. On the procedure:
This test is carried out on mice with a view to determining whether the compounds of this invention, when given preventively by intraperitoneal route, are capable at certain doses of protecting some of the animals against the epileptic seizure produced by an adequate and predetermined dose of pentylenetetrazol which would be 100% fatal in the absence of the compound.
The test was carried out on batches of 10 mice. Each batch of animals received an intraperitoneal dose of the compound to be studied so that each batch received a higher dose than the preceding batch. Fifteen minutes after administration of the compound to be tested, the animals were each given 125 mg/kg of pentylenetetrazol by intraperitoneal route. The percentage of deaths was noted 3 hours after injection of this latter compound and the result was expressed as a percentage of protection.

The nature of a further data set: in vivo. To be noted: ip, mouse, intraperitoneal route.
Data set [5] deals with pentylenetetrazol-induced seizure. Description: Anticonvulsant activity: pentylenetetrazol-induced seizure. The data set is classed as in vivo. To be noted: mice; for % of the animals still protected one hour after administration: 195 mg/kg of Compound B, 210 mg/kg of Compound C.
The mark [6] stands for this setting: i.p. 5 min before 16 mg/kg gallamine triiodoethylate i.p., dose mg/kg: A 360, D 250, E 150, F 210, G 355.
Where [7] appears, read: mice, 195 mg/kg of Compound B, 210 mg/kg of Compound C.

Consider `CCCC(CCC)CC(=O)O` [Compound A, 3-n-Propyl-hexanoic acid], for which the “solubility in the organic solvents” value in data set [1] (organic solvents) is on record as “soluble”. Besides, in data set [1] (water), the solubility in water result is reported as “insoluble”. In addition, the “antianoxic activity compared with sodium di-n-propylacetate” value in data set [2] is given as “slightly more active”. Besides, the “% of increase in the period of survival in comparison with the controls” value (from here on “% of increase in the period of survival”) in data set [2] (setting [6]) was 60%. Besides, the “activity as GABA T inhibitor compared with sodium di-n-propylacetate” value in data set [3] is recorded as “more active”. In addition, in data set [4] (mice), the “% of protection” value was 100% and the “anticonvulsant activity compared with sodium di-n-propylacetate” value is reported as “more active”. Moreover, the “% protection against the pentylenetetrazol-induced seizure” value in data set [4] (mice, 105 mg/kg by intraperitoneal route) is listed as 85%. For the same compound, in the data set “in vivo”, the LD50 (commonly the dose expected to kill half of the subjects tested) came to 500 mg/kg. Also, the MTD in “in vivo” (read-out: LDO, maximum tolerated dose (M.T.D.), highest dose which provokes no deaths) is greater than 400 mg/kg.

Take `CCCC(CCC)CCC(=O)O` [Compound B, 4-n-Propyl-heptanoic acid]: the “% of the animals still protected one hour after administration” value in data set [5] is 40%. In data set [3], the “activity as GABA T inhibitor compared with sodium di-n-propylacetate” value is recorded as “slightly less active”. For the same compound, in data set [4] (mice), the “% of protection” value came to 85% and the “duration of anticonvulsant action compared with sodium di-n-propylacetate” value is reported as “longer period of time”. Also, the “% protection against the pentylenetetrazol-induced seizure” value in data set [4] (setting [7]) is on record as “about 100%”. Moreover, the LD50 in “in vivo” came to 350 mg/kg.

Regarding `CCCC(CCC)CCCC(=O)O` [Compound C, 5-n-Propyl-octanoic acid], in data set [5], the “% of the animals still protected one hour after administration” value was 70%. For the same compound, in data set [4] (125 mg/kg by intraperitoneal route), the “% of the mice protected against the pentylenetetrazol-induced seizure” value came out at 65%. For the same compound, in data set [4] (mice), the “% of protection” value was determined as 85% and the “duration of anticonvulsant action compared with sodium di-n-propylacetate” value is “longer period of time”. In data set [4] (setting [7]), the “% protection against the pentylenetetrazol-induced seizure” value is “about 100%”. In addition, the LD50 in “in vivo” is 350 mg/kg.

Turning to `CC(C)CC(=O)O` [Compound D, 3-methyl-butanoic acid], the “antianoxic activity compared with sodium di-n-propylacetate” value in data set [2] is “appreciably more active”. Further, the “% of increase in the period of survival” value in data set [2] (setting [6]) came to 73%.

As for `CCC(CC)CC(=O)O` [Compound E, 3-ethyl-pentanoic acid], the “antianoxic activity compared with sodium di-n-propylacetate” value in data set [2] is listed as “appreciably more active”. In addition, the “% of increase in the period of survival” value in data set [2] (setting [6]) is listed as 59%.

With `CCCCC(CCCC)CC(=O)O` [Compound F, 3-n-Butyl-heptanoic acid], in data set [2], the “antianoxic activity compared with sodium di-n-propylacetate” value is reported as “slightly more active”. The “% of increase in the period of survival” value in data set [2] (setting [6]) worked out at 29%. Moreover, the “activity as GABA T inhibitor compared with sodium di-n-propylacetate” value in data set [3] is on record as “slightly less active”. Moreover, in data set [4] (mice), the “% of protection” value turned out to be 95% and the “anticonvulsant activity compared with sodium di-n-propylacetate” value is reported as “more active”. In “in vivo”, the LD50 is 300 mg/kg.

As to `CCCC(=CC(=O)O)CCC` [Compound G, 3-n-Propyl-2-hexenoic acid], the “antianoxic activity compared with sodium di-n-propylacetate” value in data set [2] is “slightly more active”. In data set [2] (setting [6]), the “% of increase in the period of survival” value turned out to be 50%. The “activity as GABA T inhibitor compared with sodium di-n-propylacetate” value in data set [3] is reported as “more active”. The “% of protection” value in data set [4] (mice) came out at 75%.

As for `CCCC(CCC)C(=O)[O-].[Na+]` [sodium di-n-propylacetate, reference compound], in data set [5] (250 mg/kg), the “% protection of the animals one hour after administration” value is given as 20%. Moreover, in data set [2] (330 mg/kg, same conditions (i.p. 5 min before 16 mg/kg gallamine triiodoethylate i.p.)), the “% of increase in the period of survival” value was found to be 40%. Further, the “% of animals protected against the pentylenetetrazol-induced seizure” value in data set [4] (mice, 250 mg/kg, same conditions) came out at 100%.
